The results in this text go back to US11331299B2, “Medicinal use of serrulatane diterpenes” (The University of Sydney, priority 2016, dated 2022).

For one assay, the system named is J-RT3-T3-5 leukemia. Nature of the assay: OncoPanel cell proliferation assay (10-day). In kind it is cell-based, human. Particulars: for GI50 / EC50 / IC50: Homo sapiens; for EC50: read-out: Cell Count EC50; for IC50: read-out: Cell Count IC50.
The target in the next assay is T1, PB1(4) (h) bromodomain (Homo sapiens, UniProt Q86U86).
T1 construct: Bromodomain
T1 sequence (Q86U86 518-625 limits assumed): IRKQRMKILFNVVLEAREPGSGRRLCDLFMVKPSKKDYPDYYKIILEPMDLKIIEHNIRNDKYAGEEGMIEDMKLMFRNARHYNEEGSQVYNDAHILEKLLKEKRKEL
The experiment in a line: Epigenetic binding assay, Bromodomain. Particulars: 10 μM; read-out: % Inhibition of Control Specific Binding.

A further assay deals with T2, SMARCA2 (h) bromodomain (Homo sapiens, UniProt P51531).
T2 construct: Bromodomain
T2 sequence (P51531 1378-1506 limits assumed): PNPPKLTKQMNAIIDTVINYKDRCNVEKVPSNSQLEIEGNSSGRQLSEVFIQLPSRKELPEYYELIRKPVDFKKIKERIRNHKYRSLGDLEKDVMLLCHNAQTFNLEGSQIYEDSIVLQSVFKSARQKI
The experiment in a line: Epigenetic binding assay, Bromodomain. Particulars: for inhibition at 10 µM: read-out: % Inhibition of Control Specific Binding.

Another assay deals with T3, CBX4 (h) chromodomain (Homo sapiens, UniProt O00257).
T3 construct: Recognition and specificity determinants of the human cbx chromodomains; Eurofins CEREP (France), contract laboratory
T3 sequence (O00257 11-69 limits assumed): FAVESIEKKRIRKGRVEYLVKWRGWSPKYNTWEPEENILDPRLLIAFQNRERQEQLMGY
The experiment in a line: Epigenetic binding assay, Chromodomain. Particulars: read-out: % Inhibition of Control Specific Binding.

The next assay concerns the target T4, CBX7 (h) chromodomain (Homo sapiens, UniProt O95931).
T4 construct: Recognition and specificity determinants of the human cbx chromodomains; Eurofins CEREP (France), contract laboratory
T4 sequence (O95931 11-69 limits assumed): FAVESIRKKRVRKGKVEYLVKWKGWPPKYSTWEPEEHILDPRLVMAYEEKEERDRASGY
Nature of the assay: Epigenetic binding assay, Chromodomain. Particulars: read-out: % Inhibition of Control Specific Binding.

The target in the next assay is T5, JMJD2B (h) (Homo sapiens, UniProt O94953).
T5 sequence (O94953 1-1096): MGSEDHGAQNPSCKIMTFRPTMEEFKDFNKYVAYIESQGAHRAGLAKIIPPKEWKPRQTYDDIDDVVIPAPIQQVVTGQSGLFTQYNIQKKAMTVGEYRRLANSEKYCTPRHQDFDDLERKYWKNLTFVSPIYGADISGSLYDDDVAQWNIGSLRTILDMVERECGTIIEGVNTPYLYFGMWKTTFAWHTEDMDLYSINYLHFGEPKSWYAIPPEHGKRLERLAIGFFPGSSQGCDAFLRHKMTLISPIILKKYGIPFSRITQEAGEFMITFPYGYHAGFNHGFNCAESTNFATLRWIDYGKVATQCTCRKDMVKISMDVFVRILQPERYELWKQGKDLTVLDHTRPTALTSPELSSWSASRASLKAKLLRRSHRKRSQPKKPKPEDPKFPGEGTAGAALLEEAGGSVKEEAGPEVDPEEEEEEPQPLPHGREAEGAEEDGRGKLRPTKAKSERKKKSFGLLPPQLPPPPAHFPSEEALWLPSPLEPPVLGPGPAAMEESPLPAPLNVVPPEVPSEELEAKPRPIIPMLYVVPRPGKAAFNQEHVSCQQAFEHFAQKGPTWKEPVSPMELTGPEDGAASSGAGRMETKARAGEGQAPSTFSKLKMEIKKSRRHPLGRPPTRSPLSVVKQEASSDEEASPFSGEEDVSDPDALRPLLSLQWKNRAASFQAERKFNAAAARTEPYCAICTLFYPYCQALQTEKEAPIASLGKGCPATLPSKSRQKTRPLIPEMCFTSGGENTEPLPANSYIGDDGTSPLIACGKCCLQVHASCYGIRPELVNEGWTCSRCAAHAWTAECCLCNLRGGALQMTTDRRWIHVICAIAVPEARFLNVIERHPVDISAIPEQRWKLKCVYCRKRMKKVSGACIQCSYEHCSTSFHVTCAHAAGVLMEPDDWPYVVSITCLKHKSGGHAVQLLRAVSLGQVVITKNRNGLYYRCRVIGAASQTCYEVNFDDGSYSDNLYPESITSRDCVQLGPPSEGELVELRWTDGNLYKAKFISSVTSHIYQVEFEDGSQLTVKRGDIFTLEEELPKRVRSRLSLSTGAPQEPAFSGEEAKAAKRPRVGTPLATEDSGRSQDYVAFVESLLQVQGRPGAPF
The experiment in a line: Epigenetic enzyme assay, Demethylases (KDMs). Type of assay: biochemical. Particulars: for inhibition at 10 µM: read-out: % Inhibition of Control Values.

The next assay addresses T6, JMJD2D (h) (Homo sapiens, UniProt Q6B0I6).
T6 sequence (Q6B0I6 1-523): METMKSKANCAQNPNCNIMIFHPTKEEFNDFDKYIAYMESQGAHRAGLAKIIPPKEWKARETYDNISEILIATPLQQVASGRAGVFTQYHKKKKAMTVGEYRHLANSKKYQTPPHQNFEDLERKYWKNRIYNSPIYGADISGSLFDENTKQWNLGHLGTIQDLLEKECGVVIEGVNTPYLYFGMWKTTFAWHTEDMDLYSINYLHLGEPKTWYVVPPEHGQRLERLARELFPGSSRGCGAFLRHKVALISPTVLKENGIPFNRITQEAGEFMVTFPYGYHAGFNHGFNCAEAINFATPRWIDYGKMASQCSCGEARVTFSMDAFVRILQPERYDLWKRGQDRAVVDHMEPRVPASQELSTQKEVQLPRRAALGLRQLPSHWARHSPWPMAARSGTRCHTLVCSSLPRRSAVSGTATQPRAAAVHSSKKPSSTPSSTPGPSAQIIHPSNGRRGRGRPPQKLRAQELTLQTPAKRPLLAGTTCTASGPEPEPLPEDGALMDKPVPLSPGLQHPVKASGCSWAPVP
The experiment in a line: Epigenetic enzyme assay, Demethylases (KDMs). In kind it is biochemical. Particulars: read-out: % Inhibition of Control Values.

The target in a further assay is JMJD3 (h) (Homo sapiens, UniProt O15054). The experiment in a line: Epigenetic enzyme assay, Demethylases (KDMs). In kind it is biochemical. Particulars: for inhibition at 10 µM: read-out: % Inhibition of Control Values.
Sequence of JMJD3 (h) (O15054 whole entry): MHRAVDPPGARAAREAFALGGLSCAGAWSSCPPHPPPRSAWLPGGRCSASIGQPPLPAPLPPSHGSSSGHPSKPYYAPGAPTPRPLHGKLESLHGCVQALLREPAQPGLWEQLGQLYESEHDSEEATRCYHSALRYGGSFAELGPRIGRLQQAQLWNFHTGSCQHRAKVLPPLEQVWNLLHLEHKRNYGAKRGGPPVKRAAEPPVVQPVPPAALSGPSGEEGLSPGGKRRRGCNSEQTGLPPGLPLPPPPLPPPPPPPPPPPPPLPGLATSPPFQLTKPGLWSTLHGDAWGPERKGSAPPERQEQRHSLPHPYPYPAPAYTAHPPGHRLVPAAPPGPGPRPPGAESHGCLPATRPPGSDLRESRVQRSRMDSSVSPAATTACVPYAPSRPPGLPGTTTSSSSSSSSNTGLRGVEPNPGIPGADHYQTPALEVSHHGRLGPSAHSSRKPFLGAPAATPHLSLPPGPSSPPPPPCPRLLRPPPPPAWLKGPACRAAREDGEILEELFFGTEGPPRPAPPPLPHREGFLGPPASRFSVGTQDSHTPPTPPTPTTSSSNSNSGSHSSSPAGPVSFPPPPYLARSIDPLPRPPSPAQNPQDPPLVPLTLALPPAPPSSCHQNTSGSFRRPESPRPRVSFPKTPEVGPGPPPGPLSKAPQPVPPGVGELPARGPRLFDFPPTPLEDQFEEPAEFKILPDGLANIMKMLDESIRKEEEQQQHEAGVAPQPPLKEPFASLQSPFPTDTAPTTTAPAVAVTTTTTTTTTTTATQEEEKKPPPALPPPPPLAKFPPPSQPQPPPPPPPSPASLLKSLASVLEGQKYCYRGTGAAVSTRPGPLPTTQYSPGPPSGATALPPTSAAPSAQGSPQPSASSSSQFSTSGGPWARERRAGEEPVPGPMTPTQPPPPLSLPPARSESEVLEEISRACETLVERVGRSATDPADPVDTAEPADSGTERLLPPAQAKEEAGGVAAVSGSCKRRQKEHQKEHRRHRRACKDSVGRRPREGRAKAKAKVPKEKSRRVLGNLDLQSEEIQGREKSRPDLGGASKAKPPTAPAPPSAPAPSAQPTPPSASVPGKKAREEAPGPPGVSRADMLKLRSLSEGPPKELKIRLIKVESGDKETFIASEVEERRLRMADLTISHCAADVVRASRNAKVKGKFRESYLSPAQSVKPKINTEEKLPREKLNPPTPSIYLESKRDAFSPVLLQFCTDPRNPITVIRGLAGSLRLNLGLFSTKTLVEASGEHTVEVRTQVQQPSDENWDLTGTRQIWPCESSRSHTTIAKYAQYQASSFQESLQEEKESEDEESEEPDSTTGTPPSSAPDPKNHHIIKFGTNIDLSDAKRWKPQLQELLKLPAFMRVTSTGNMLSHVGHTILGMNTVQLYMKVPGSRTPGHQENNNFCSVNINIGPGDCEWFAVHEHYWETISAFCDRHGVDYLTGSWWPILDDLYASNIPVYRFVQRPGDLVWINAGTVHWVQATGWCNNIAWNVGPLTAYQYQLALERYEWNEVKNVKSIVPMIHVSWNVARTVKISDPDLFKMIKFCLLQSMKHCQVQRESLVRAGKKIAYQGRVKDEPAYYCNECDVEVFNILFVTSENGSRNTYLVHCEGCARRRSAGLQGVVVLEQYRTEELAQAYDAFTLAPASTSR
In the next assay the target is T7, HAT1(h) (Homo sapiens, UniProt O14929).
T7 sequence (O14929 1-419): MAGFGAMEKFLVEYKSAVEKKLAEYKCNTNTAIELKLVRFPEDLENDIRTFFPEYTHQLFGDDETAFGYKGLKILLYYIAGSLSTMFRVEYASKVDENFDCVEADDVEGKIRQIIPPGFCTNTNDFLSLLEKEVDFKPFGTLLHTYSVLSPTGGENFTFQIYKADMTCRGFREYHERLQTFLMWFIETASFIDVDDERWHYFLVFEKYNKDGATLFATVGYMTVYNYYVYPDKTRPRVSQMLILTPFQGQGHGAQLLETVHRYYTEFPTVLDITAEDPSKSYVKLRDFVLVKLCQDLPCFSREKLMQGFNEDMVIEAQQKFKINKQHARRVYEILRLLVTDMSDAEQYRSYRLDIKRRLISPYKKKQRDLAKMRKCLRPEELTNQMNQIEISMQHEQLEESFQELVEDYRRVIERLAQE
Nature of the assay: Epigenetic enzyme assay, Histone acetyltransferases (HATs). Type of assay: biochemical. Particulars: read-out: % Inhibition of Control Values.

A further assay deals with MYST3(h) (Homo sapiens, UniProt Q92794). Described as above. In kind it is biochemical. Particulars: read-out: % Inhibition of Control Values.
Sequence of MYST3(h) (Q92794 whole entry): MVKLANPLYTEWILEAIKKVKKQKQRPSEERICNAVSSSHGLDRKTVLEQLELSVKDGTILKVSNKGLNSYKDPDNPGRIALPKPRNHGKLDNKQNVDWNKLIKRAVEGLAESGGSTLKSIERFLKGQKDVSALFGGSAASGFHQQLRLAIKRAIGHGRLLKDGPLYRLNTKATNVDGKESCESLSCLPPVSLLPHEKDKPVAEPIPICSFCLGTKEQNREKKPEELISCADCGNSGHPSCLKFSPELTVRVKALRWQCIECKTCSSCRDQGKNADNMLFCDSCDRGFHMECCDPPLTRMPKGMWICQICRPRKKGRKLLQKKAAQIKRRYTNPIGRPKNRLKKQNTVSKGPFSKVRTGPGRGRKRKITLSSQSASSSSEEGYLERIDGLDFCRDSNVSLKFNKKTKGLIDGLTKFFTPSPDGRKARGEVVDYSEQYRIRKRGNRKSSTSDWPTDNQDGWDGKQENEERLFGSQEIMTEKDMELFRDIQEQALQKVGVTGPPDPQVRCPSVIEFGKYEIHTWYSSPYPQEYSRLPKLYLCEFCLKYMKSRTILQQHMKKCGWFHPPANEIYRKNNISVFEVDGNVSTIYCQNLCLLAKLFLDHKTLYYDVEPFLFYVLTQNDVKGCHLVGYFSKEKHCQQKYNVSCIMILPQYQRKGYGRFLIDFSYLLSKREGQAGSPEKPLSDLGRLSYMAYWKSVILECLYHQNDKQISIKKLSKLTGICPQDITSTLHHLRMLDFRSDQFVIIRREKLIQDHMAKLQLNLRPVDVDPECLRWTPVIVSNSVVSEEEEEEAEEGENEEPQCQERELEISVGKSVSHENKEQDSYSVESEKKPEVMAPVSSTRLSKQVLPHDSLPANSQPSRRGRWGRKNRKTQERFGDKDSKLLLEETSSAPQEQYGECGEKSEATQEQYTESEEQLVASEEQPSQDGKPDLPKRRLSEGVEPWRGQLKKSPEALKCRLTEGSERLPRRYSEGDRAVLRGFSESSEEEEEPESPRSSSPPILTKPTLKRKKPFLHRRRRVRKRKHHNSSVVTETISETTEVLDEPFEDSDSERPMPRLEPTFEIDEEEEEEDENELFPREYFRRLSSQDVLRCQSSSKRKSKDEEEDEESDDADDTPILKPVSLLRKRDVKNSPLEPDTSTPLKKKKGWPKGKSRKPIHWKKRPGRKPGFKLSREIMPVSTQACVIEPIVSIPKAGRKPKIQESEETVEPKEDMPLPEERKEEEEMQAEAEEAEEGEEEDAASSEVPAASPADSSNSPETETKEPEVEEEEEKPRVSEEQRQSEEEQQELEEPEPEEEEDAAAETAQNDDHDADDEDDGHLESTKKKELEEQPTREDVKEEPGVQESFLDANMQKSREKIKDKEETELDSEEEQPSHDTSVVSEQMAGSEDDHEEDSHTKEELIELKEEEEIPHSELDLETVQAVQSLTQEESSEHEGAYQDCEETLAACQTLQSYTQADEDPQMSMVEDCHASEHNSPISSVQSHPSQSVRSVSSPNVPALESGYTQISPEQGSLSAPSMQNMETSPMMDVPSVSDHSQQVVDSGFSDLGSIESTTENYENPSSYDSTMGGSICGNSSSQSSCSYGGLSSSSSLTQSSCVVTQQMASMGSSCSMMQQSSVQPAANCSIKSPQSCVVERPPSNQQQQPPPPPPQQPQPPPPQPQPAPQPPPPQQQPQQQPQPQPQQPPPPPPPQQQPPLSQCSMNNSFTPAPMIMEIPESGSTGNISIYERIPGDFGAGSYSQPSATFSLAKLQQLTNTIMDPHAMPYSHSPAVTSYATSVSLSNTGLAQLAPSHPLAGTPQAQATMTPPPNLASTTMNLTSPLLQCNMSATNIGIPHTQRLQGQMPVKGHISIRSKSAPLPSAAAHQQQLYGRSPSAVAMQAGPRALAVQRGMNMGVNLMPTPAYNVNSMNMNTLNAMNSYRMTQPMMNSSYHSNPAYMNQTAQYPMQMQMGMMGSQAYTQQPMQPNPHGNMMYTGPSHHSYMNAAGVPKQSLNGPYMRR
A further assay has as its target MLL3(h) complex (Homo sapiens, UniProt Q8NEZ4). The experiment in a line: Epigenetic enzyme assay, Methyltransferases (MTs). In kind it is biochemical. Particulars: for inhibition at 10 µM: read-out: % Inhibition of Control Values.
The next assay deals with USP 7 (h) (Homo sapiens, UniProt Q93009). Nature of the assay: Epigenetic enzyme assay, Ubiquitin modifying enzymes. Type of assay: biochemical. Particulars: 10 μM; read-out: % Inhibition of Control Values.
Sequence of USP 7 (h) (Q93009 whole entry): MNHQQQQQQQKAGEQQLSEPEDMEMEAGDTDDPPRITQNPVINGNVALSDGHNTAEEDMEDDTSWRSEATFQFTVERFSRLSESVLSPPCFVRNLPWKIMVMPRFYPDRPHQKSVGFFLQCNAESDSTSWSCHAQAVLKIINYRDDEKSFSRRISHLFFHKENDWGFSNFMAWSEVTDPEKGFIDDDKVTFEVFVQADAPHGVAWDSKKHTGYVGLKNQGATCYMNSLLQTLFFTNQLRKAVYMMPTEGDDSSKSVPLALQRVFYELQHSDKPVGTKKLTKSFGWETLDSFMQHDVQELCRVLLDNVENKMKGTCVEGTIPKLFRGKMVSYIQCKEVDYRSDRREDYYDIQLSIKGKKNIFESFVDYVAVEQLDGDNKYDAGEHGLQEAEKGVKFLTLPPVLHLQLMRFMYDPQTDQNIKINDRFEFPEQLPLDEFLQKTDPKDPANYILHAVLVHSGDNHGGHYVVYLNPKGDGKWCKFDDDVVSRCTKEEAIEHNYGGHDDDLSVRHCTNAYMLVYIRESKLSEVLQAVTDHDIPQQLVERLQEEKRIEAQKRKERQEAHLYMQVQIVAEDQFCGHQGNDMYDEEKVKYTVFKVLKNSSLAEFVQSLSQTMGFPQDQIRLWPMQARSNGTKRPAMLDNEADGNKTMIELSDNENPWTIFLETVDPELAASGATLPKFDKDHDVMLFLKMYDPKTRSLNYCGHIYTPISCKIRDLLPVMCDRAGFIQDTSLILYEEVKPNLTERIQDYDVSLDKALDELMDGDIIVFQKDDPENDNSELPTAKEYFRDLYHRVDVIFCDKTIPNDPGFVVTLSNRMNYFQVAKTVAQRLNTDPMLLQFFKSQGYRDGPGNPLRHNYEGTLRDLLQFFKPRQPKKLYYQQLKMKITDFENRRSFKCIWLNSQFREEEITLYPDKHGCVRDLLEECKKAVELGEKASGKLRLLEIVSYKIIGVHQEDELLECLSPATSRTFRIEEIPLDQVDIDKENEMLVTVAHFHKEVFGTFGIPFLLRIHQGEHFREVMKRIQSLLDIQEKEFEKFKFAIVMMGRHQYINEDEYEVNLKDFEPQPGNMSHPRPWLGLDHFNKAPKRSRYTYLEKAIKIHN
Setting [1] is: J-RT3-T3-5, Leukemia, read-out: Cell Count GI50.

Like-named read-outs stand apart in the source and are kept apart here.

The GI50 is the concentration that inhibits growth by half. For orientation: EC50 means the concentration at which the effect is half-maximal. In general, IC50 refers to the concentration that gives 50% inhibition. Take `CC(C)=CCC[C@H](C)[C@@H]1CC[C@@H](C)c2c1cc(C)c(O)c2O` [Compound 4, 7,8-dihydroxyserrulat-14-ene]: in the assay on J-RT3-T3-5 leukemia (J-RT3-T3-5, read-out: GI50), the concentration for 50% growth inhibition (GI50) was 2710 nM. In the assay on J-RT3-T3-5 leukemia (J-RT3-T3-5, Leukemia), the 50% effective concentration (EC50) turned out to be 2710 nM and the IC50 was determined as 2710 nM. Also, the GI50 with J-RT3-T3-5 leukemia (setting [1]) worked out at 2710 nM. In the assay with J-RT3-T3-5 leukemia (ratio of GI50 values), the “times less activity than Compound 1” value was “approximately 270 times”.

What is called inhibition is the change of the read-out against control, counted positive when it falls. In the case of `CC(C)=CCC[C@@H]1COc2c(C)cc(O)c3c2[C@H]1CC[C@H]3C` [Compound 3, 5,18-epoxy-8-hydroxyserrulat-14-ene], the inhibition at 10 µM at PB1(4) (h) bromodomain was 16%; at SMARCA2 (h) bromodomain, 18%; on CBX4 (h) chromodomain, 40%; at CBX7 (h) chromodomain it was 43%; on JMJD2B (h) (10 μM), 8%; at JMJD2D (h) it was 18%. The inhibition at 10 µM was 11% on JMJD3 (h) (10 μM); -3% at HAT1(h); 3% on MYST3(h); -33% at MLL3(h) complex; 9% at USP 7 (h).

Consider `CC(C)=CCC[C@@H]1C(O)Oc2c(C)cc(O)c3c2[C@H]1CC[C@H]3C` (stereo partly drawn) [Compound 2, 5,18-epoxyserrulat-14-en-8,18-diol], for which the inhibition at 10 µM on PB1(4) (h) bromodomain is -3%; at SMARCA2 (h) bromodomain it was 21%; at CBX4 (h) chromodomain, 29%; at CBX7 (h) chromodomain, 33%; on JMJD2B (h) (10 μM), 16%; at JMJD2D (h), -17%. The inhibition at 10 µM on JMJD3 (h) (10 μM) was 9%; on HAT1(h) it was 3%; on MYST3(h), 11%; on MLL3(h) complex it was -21%; on USP 7 (h), -14%. Besides, the 50% effective concentration (EC50) in the assay on J-RT3-T3-5 leukemia (J-RT3-T3-5, Leukemia) amounted to 2080 nM. Moreover, in the assay on J-RT3-T3-5 leukemia (setting [1]), the GI50 stood at 2060 nM. In the assay on J-RT3-T3-5 leukemia (J-RT3-T3-5, Leukemia), the IC50 turned out to be 2080 nM.

Turning to `Nc1ncnc2c1ncn2[C@@H]1O[C@H](CSCC[C@H](N)C(=O)O)[C@@H](O)[C@H]1O` [SAH], on MLL3(h) complex (read-out: Reference IC50), the IC50 is 9000 nM.

Consider `CC(C)=CCC[C@H](CO)[C@@H]1CC[C@@H](C)c2c1cc(C)c(O)c2O` [Compound 1, 7,8,18-trihydroxyserrulat-14-ene], for which the inhibition at 10 µM at PB1(4) (h) bromodomain was 41%; at SMARCA2 (h) bromodomain, 83%; on CBX4 (h) chromodomain, 25%; on CBX7 (h) chromodomain, 25%; at JMJD2B (h) (10 μM), 65%; at JMJD2D (h), 36%. Further, the inhibition at 10 µM at JMJD3 (h) (10 μM) is 91%; at HAT1(h), -3%; on MYST3(h), 18%; on MLL3(h) complex, -22%; at USP 7 (h) it was -18%. The “% Inhibition of Control Specific Binding” value on SMARCA2 (h) bromodomain (10 μM) is given as “significant inhibitory activity”. Besides, the “% Inhibition of Control Values” at JMJD2B (h) (10 μM) and at JMJD3 (h) (10 μM) was “significant inhibitory activity” each time. In addition, the 50% inhibitory concentration (IC50) on JMJD2B (h) (Table 11, inhibition/concentration-response curve, read-out: IC50) came out at 12000 nM; on JMJD3 (h) (Table 11, inhibition/concentration-response curve), 14000 nM; in the assay on J-RT3-T3-5 leukemia (J-RT3-T3-5, Leukemia), 10 nM. Further, the concentration for 50% growth inhibition (GI50) in the assay on J-RT3-T3-5 leukemia (J-RT3-T3-5, read-out: GI50) amounted to 10.1 nM; in the assay on J-RT3-T3-5 leukemia (setting [1]) it was 10 nM. Further, the EC50 with J-RT3-T3-5 leukemia (J-RT3-T3-5, Leukemia) is 10 nM.
